Data taken from patent publication US11229628B2, “TRPA1 and TRPV4 inhibitors and methods of using the same for organ-specific inflammation and itch” (Duke University, priority 2015, dated 2022).
Entries after “also recorded” stand apart in the source; their conditions may differ.

Key:
[1] = Stability on incubation in serum; assay type: in vitro ADME; conditions: 3 h and 12 h incubation in serum at 37° C.
Procedure: It was also tested whether compounds are readily broken down in systemic fluid, for which serum was used.

mice = test: UVB-evoked nocifensive behavior after topical GSK205 (Hargreaves' test, von Frey hair); assay type: in vivo, mouse
Procedure: A viscous solution of 68% EtOH/5% glycerol plus 1 mM or 5 mM GSK205 (none for control) was applied to hindpaws by rubbing in 20 μL, applied at time-points 1 hour and again 10 min before UV exposure.
Behavioral tests were performed to evaluate the decrease in withdrawal thresholds in response to mechanical or thermal stimuli applied to hind paws. These withdrawal thresholds were ascertained before and after UVB exposure. Mice were confined by plexi-glass enclosures on top of 25×26 cm Bio Rad Gel Doc 2000 UV transilluminator (302 nm), and otherwise allowed to openly explore this environment. UV-exposure lasted for 5 minutes with an exposure of 600 mJ/cm^2.
Hindpaw mechanical withdrawal thresholds were determined by the automated von Frey hair method, using a 0.5 mm diameter stainless steel filament, part of an automated plantar touch stimulator (Ugo Basile, Modena, Italy). Relevant detail included pre-test acclimatization in a quiet room for 30 min, conducting the test at the same time of day and blinded observers. The stimulus was delivered to the hindpaw, automatically discontinued upon withdrawal, and its intensity recorded automatically. 6-8 trials per animal were conducted, with equal exposure of both hindpaws, leading to an average withdrawal threshold. Results are reported as Δ-threshold, which was calculated by subtracting post-treatment from pre-treatment measurements, expressed as % or relative to 1.0.
Hindpaw thermal (hot) withdrawal thresholds were determined by the well-established Hargreaves' method, using an infra-red thermal stimulation device that delivers the stimulus from underneath the hindpaw combined with automatic shut-off upon withdrawal (Ugo Basile). Stimulation and measurements were conducted as described for von Frey hair testing. A cutoff of 20 sec was set to prevent tissue damage.
In view of the observed impact of epidermal-specific TRPV4-deficiency on mouse nociception in response to UVB, and because of the unambiguous effects of selective TRPV4 blockers on 1° MK in vitro, we tested the possible clinical relevance of our findings. For this purpose, we topically applied TRPV4 inhibitor GSK205 to WT mouse skin and subsequently exposed animals to UVB (FIG. 12A).

[2] = UVB permeation of foot-pad skin (sunscreen test); design: species or system mouse; conditions: topically applied; GSK205 5 mM
Procedure: The UV LED was powered with 20 mA of current, resulting in 500 μW of optical power in a circular focal spot 1.5 mm in diameter, with 70% of the total flux in a 0.5 mm beam radius. The UV optical power transmitted through the sample was detected by a Hamamatsu S127-66BR UV detector, and the output of the photodetector was measured using a Keithley 236 source measure unit. Next, the foot-pad epidermis of a mouse was measured for UV transmission by placing it on a quartz coverslip and exposure to the UV beam. The vehicle-control group was treated with the alcohol and glycerol solution only. Another control group consisted of a commercially-available SPF100 preparation sunscreen in form of a cream, which was applied similar to the vehicle-control. The data for the GSK205 and sunscreen was normalized to this control data.
To validate these finding, we tested UVB absorption in GSK205-treated paw-pad skin, and whether GSK205 thus functions as sunscreen.

[3] = system: mouse primary keratinocytes; test: Histamine receptor-mediated Ca++ transients in mouse primary keratinocytes (fura-2); assay type: cell-based
Procedure: Mouse primary keratinocytes were prepared as described in Moore et al. (Proc Natl Acad Sci USA, 2013, 110, E3225-3416). Cells were pre-treated, for 10 min with 10 μM GSK205. Then 100 μM of each, histamine, 2-Pyridylethylamine (selective activator for H1R), and 4-Methylhistamine (selective activator for H4R; both H1R and H4R known to be expressed in rodent and human keratinocytes), were applied, and fura-2 loaded keratinocytes were imaged ratiometrically, as described (Moore et al. Proc Natl Acad Sci USA, 2013, 110, E3225-3416; Li, et al. Environ Health Perspect, 2011, 119, 784-9316). Shown in blue (top curve) is the average signal of ≥75 cells. Note the robust signal for histamine, and in response to selective activator of H1R, less prominent for H4R, in keeping with previous findings on expression levels of these channels in keratinocytes.

| histamine-Ca++ response ([3]; 10 μM GSK205 10 min pre-treatment, 100 μM histamine) | Ca++ response to activation of H1R ([3]; 10 μM GSK205, 100 μM 2-Pyridylethylamine) | Ca++ response to H4R ([3]; 10 μM GSK205, 100 μM 4-Methylhistamine) | Structure (SMILES) | concentration of a fixed spiked amount after incubation in serum [1] | delay in thermal sensitivity after UVB (mice; topical 1 mM GSK205, Hargreaves' test) [h] | sensitivity to von Frey hair mechanical stimulation after UVB (mice; topical 5 mM GSK205) | thermally-evoked nocifensive behavior (thermal allodynia) after UVB (mice; topical 5 mM GSK205, Hargreaves' test, 48 hours post-UVB) | nocifensive behavior after UVB in Trpv4−/− mice (off-target effects) (mice; topical 5 mM GSK205 vs. vehicle, Trpv4−/− mice) | UVB permeation of paw-pad skin [2] |
| --- | --- | --- | --- | --- | --- | --- | --- | --- | --- |
| – | – | – | CN(CCc1ccc(Nc2nc(-c3ccccc3)cs2)cc1)Cc1ccccc1 [Compound 16-8] | did not change | – | – | – | – | – |
| eliminated completely | eliminated completely | significantly attenuated | CN(CCc1ccc(Nc2nc(-c3cccnc3)cs2)cc1)Cc1ccccc1 [GSK205] | – | ~24 | significantly reduced sensitivity | sustained attenuation; also recorded: significant attenuation of thermal allodynia | did not show any inter-group differences; also recorded: lack of off-target effects | equal UVB permeation; also recorded: absence of a change in UVB permeation |
